pIC50: −log10 of the molar value. Active and inactive are the calls of the source. No cut-off for these calls is given here.
Key:
HEK293 = test: Cytotoxicity against human HEK293 cells assessed as reduction in cell viability measured after 48 hrs by MTT assay; assay type: cell-based; conditions: for pIC50: Homo sapiens, HEK293, 48 h, read-out: IC50
[1] = (§1) Antiproliferative activity against human RKOP3 cells assessed as reduction in cell viability measured after 48 hrs by MTT assay; assay type: functional, cell-based
Homo sapiens = organism: Homo sapiens; test: as §1; assay type: functional, cell-based
HeLa = test: Antiproliferative activity against human HeLa cells assessed as reduction in cell viability measured after 48 hrs by MTT assay; assay type: functional, cell-based
A549 = test: Antiproliferative activity against human A549 cells assessed as reduction in cell viability measured after 48 hrs by MTT assay; assay type: functional, cell-based; conditions: for pIC50: A549, 48 h
DU-145 [2] = test: Antiproliferative activity against human DU145 cells assessed as reduction in cell viability measured after 48 hrs by MTT assay; assay type: functional, cell-based; conditions: for pIC50: DU-145, 48 h
Tubulin (Homo sapiens) [3] = target: T1, Tubulin (Homo sapiens) (UniProt P68371+Q9H4B7+P0DPH7+P68366+Q13509+Q71U36+P04350+Q3ZCM7+P07437+P68363+Q9BQE3+Q6PEY2+Q13885+Q9BVA1+Q9BUF5); test: Inhibition of tubulin […] in human DU145 cells assessed as increase in soluble fraction of tubulin at […] measured after 24 hrs by Western blot analysis; assay type: cell-based; conditions: DU-145
DU-145 [4] = test: Induction of apoptosis in human DU145 cells assessed as late apoptotic cells at 2.54 uM measured after 24 hrs by annexinV-FITC/propidium iodide staining based flow cytometry analysis (reference value: 0.05 %); assay type: functional
[5] = Induction of apoptosis in human RKOP3 cells assessed as necrotic cells at 2 uM measured after 24 hrs by annexinV-FITC/propidium iodide staining based flow cytometry analysis (reference value: 0 %); assay type: functional
[6] = Induction of apoptosis in human RKOP3 cells assessed as late apoptotic cells at 2 uM measured after 24 hrs by annexinV-FITC/propidium iodide staining based flow cytometry analysis (reference value: 0.01 %); assay type: functional
DU-145 [7] = test: Induction of apoptosis in human DU145 cells assessed as live cells at 2.54 uM measured after 24 hrs by annexinV-FITC/propidium iodide staining based flow cytometry analysis (reference value: 97.09 %); assay type: functional
DU-145 [8] = test: Induction of apoptosis in human DU145 cells assessed as early apoptotic cells at 2.54 uM measured after 24 hrs by annexinV-FITC/propidium iodide staining based flow cytometry analysis (reference value: 2.34 %); assay type: functional
[9] = Induction of apoptosis in human RKOP3 cells assessed as early apoptotic cells at 2 uM measured after 24 hrs by annexinV-FITC/propidium iodide staining based flow cytometry analysis (reference value: 1.8 %); assay type: functional
[10] = Induction of apoptosis in human RKOP3 cells assessed as live cells at 2 uM measured after 24 hrs by annexinV-FITC/propidium iodide staining based flow cytometry analysis (reference value: 98.19 %); assay type: functional
DU-145 [11] = test: Induction of apoptosis in human DU145 cells assessed as necrotic cells at 2.54 uM measured after 24 hrs by annexinV-FITC/propidium iodide staining based flow cytometry analysis (reference value: 0.52 %); assay type: functional
DU-145 [12] = test: Induction of apoptosis in human DU145 cells assessed as early apoptotic cells at 1.5 uM measured after 48 hrs by annexinV-FITC/propidium iodide staining based flow cytometry analysis (reference value: 2.34 %); assay type: functional
Tubulin (Homo sapiens) [13] = target: T1, Tubulin (Homo sapiens); test: Inhibition of tubulin polymerization in human HeLa cells assessed as disruption of microtubule network at 10 uM measured after 24 hrs by immunofluorescence assay; assay type: cell-based
DU-145 [14] = test: Induction of apoptosis in human DU145 cells assessed as live cells at 1.5 uM measured after 48 hrs by annexinV-FITC/propidium iodide staining based flow cytometry analysis (reference value: 97.09 %); assay type: functional
DU-145 [15] = test: Cell cycle arrest in human DU145 cells assessed as accumulation at G0/G1 phase at 5 uM measured after 24 hrs by propidium iodide staining based flow cytometry analysis (reference value: 58.2 %); assay type: functional
DU-145 [16] = test: Induction of apoptosis in human DU145 cells assessed as necrotic cells at 5 uM measured after 48 hrs by annexinV-FITC/propidium iodide staining based flow cytometry analysis (reference value: 0.52 %); assay type: functional
DU-145 [17] = test: Cell cycle arrest in human DU145 cells assessed as accumulation at G0/G1 phase at 1.5 uM measured after 24 hrs by propidium iodide staining based flow cytometry analysis (reference value: 58.2 %); assay type: functional
DU-145 [18] = test: Induction of apoptosis in human DU145 cells assessed as late apoptotic cells at 5 uM measured after 48 hrs by annexinV-FITC/propidium iodide staining based flow cytometry analysis (reference value: 0.05 %); assay type: functional
DU-145 [19] = test: Induction of apoptosis in human DU145 cells assessed as necrotic cells at 3.5 uM measured after 48 hrs by annexinV-FITC/propidium iodide staining based flow cytometry analysis (reference value: 0.52 %); assay type: functional
DU-145 [20] = test: Cell cycle arrest in human DU145 cells assessed as accumulation at G0/G1 phase at 3 uM measured after 24 hrs by propidium iodide staining based flow cytometry analysis (reference value: 58.2 %); assay type: functional
DU-145 [21] = test: Induction of apoptosis in human DU145 cells assessed as early apoptotic cells at 3.5 uM measured after 48 hrs by annexinV-FITC/propidium iodide staining based flow cytometry analysis (reference value: 2.34 %); assay type: functional
DU-145 [22] = test: Induction of apoptosis in human DU145 cells assessed as early apoptotic cells at 5 uM measured after 48 hrs by annexinV-FITC/propidium iodide staining based flow cytometry analysis (reference value: 2.34 %); assay type: functional
DU-145 [23] = test: Induction of apoptosis in human DU145 cells assessed as live cells at 5 uM measured after 48 hrs by annexinV-FITC/propidium iodide staining based flow cytometry analysis (reference value: 97.09 %); assay type: functional
DU-145 [24] = test: Induction of apoptosis in human DU145 cells assessed as necrotic cells at 1.5 uM measured after 48 hrs by annexinV-FITC/propidium iodide staining based flow cytometry analysis (reference value: 0.52 %); assay type: functional
DU-145 [25] = test: Induction of apoptosis in human DU145 cells assessed as late apoptotic cells at 1.5 uM measured after 48 hrs by annexinV-FITC/propidium iodide staining based flow cytometry analysis (reference value: 0.05 %); assay type: functional
DU-145 [26] = test: Induction of apoptosis in human DU145 cells assessed as live cells at 3.5 uM measured after 48 hrs by annexinV-FITC/propidium iodide staining based flow cytometry analysis (reference value: 97.09 %); assay type: functional
DU-145 [27] = test: Induction of apoptosis in human DU145 cells assessed as late apoptotic cells at 3.5 uM measured after 48 hrs by annexinV-FITC/propidium iodide staining based flow cytometry analysis (reference value: 0.05 %); assay type: functional

Structure (SMILES)	pIC50 (HEK293)	pIC50 [1]	inhibition (Homo sapiens)	pIC50 (HeLa)	inhibition (HeLa)	inhibition (A549)	pIC50 (A549)	inhibition (DU-145 [2])	pIC50 (DU-145 [2])	also measured
COC1=C(OC)C23C(=C/C1=N\OC(=O)C1CC1)C[C@H](C)[C@@]2(C)Cc1cc(OC)c(OC)c(OC)c13 (some centres undefined)	4.18	4.22	Dose-dependent effect	4.82	Dose-dependent effect	Dose-dependent effect	5.11	Dose-dependent effect	4.30	
COC1=C(OC)C23C(=C/C1=N\OC(=O)c1c(Cl)cc(Cl)cc1Cl)C[C@H](C)[C@@]2(C)Cc1cc(OC)c(OC)c(OC)c13 (some centres undefined)	4.10	4.39	Dose-dependent effect	4.29	Dose-dependent effect	Dose-dependent effect	5.13	Dose-dependent effect	4.43	
COC(=O)Nc1nc2cc(C(=O)c3cccs3)ccc2[nH]1										inhibition (Tubulin (Homo sapiens) [3]): Active
CCCCC(=O)O/N=C1\C=C2C[C@H](C)[C@@]3(C)Cc4cc(OC)c(OC)c(OC)c4C23C(OC)=C1OC (some centres undefined)	3.95	4.83	Dose-dependent effect	4.89	Dose-dependent effect	Dose-dependent effect	5.16	Dose-dependent effect	4.64	
CCOC(=O)CCC(=O)O/N=C1\C=C2C[C@H](C)[C@@]3(C)Cc4cc(OC)c(OC)c(OC)c4C23C(OC)=C1OC (some centres undefined)	4.07	4.65	Dose-dependent effect	5.08	Dose-dependent effect	Dose-dependent effect	5.08	Dose-dependent effect	4.60	
COC1=C(OC)C23C(=CC1=O)C[C@H](C)[C@@]2(C)Cc1cc(OC)c(OC)c(OC)c13 (some centres undefined)	4.30	4.30	Dose-dependent effect	5.37	Dose-dependent effect	Dose-dependent effect	5.11	Dose-dependent effect	5.02	
COC1=C(OC)C23C(=C/C1=N\OC(=O)C(C)C)C[C@H](C)[C@@]2(C)Cc1cc(OC)c(OC)c(OC)c13 (some centres undefined)	4.09	4.81	Dose-dependent effect	5.32	Dose-dependent effect	Dose-dependent effect	5.22	Dose-dependent effect	4.59	
COC1=C(OC)C23C(=C/C1=N\OC(=O)c1ccc(F)cc1)C[C@H](C)[C@@]2(C)Cc1cc(OC)c(OC)c(OC)c13 (some centres undefined)	4.09	4.68	Dose-dependent effect	5.26	Dose-dependent effect	Dose-dependent effect	5.04	Dose-dependent effect	4.78	
COC1=C(OC)C23C(=C/C1=N\O)C[C@H](C)[C@@]2(C)Cc1cc(OC)c(OC)c(OC)c13 (some centres undefined)	4.26	4.25	Dose-dependent effect	4.30	Dose-dependent effect	Dose-dependent effect	5.07	Dose-dependent effect	5.12	
COc1cccc2c1C(=O)c1c(O)c3c(c(O)c1C2=O)C[C@@](O)(C(=O)CO)C[C@@H]3O[C@H]1C[C@H](N)[C@H](O)[C@H](C)O1 [DOXORUBICIN]		5.65		5.71					5.60	Activity (DU-145 [4]): 7.83%; IC50 (HEK293; hek293): Not Active; Activity [5]: 0.05%; Activity [6]: 1.77%; Activity (DU-145 [7]): 46.09%; Activity (DU-145 [8]): 46.08%; Activity [9]: 37.21%; Activity [10]: 60.97%; Activity (DU-145 [11]): 0%
CCC(=O)O/N=C1\C=C2C[C@H](C)[C@@]3(C)Cc4cc(OC)c(OC)c(OC)c4C23C(OC)=C1OC (some centres undefined)	4.19	4.22	Dose-dependent effect	4.34	Dose-dependent effect	Dose-dependent effect	5.19	Dose-dependent effect	5.47	Activity (DU-145 [12]): 23.33%; inhibition (Tubulin (Homo sapiens) [13]): Active; inhibition (Tubulin (Homo sapiens) [3]): Active; Activity (DU-145 [14]): 75.71%; Activity (DU-145 [15]): 71.07%; Activity (DU-145 [16]): 0.04%; Activity (DU-145 [17]): 66.97%; Activity (DU-145 [18]): 1.54%; Activity (DU-145 [19]): 0.07%; Activity (DU-145 [20]): 66.4%; Activity (DU-145 [21]): 27.56%; Activity (DU-145 [22]): 29.44%; Activity (DU-145 [23]): 68.98%; Activity (DU-145 [24]): 0%; Activity (DU-145 [25]): 0.96%; Activity (DU-145 [26]): 68.5%; Activity (DU-145 [27]): 3.87%
COc1cc2c(c(OC)c1OC)-c1c(cc(OC)c(OC)c1OC)C[C@](C)(O)[C@@H](C)C2 [SCHIZANDRIN]	4.09	5.27	Dose-dependent effect	5.30	Dose-dependent effect	Dose-dependent effect	5.07	Dose-dependent effect	5.27	
COC1=C(OC)C23C(=C/C1=N\OC(=O)c1ccc(Br)cc1)C[C@H](C)[C@@]2(C)Cc1cc(OC)c(OC)c(OC)c13 (some centres undefined)	3.87	5.01	Dose-dependent effect	5.13	Dose-dependent effect	Dose-dependent effect	5.23	Dose-dependent effect	4.69	
